Common to all, as to assay type: functional, cell-based
Holding throughout (settings): C57BL/6, BMDC

A short description of assay [1]: Antiinflammatory activity in C57BL/6 mouse BMDC cells assessed as inhibition of LPS-induced IL-12 p40 production preincubated for 1 hr prior to LPS-stimulation measured after 18 hrs by ELISA. For orientation: In an ELISA, binding on a coated surface is turned into a signal by an enzyme label.
Assay [2] is described as follows: Antiinflammatory activity in C57BL/6 mouse BMDC cells assessed as inhibition of LPS-induced TNFalpha production preincubated for 1 hr prior to LPS-stimulation measured after 18 hrs by ELISA.
Assay [3] is described as follows: Antiinflammatory activity in C57BL/6 mouse BMDC cells assessed as inhibition of LPS-induced IL-6 production preincubated for 1 hr prior to LPS-stimulation measured after 18 hrs by ELISA.

SMILES strings stand for the structures.

This passage reports IC50 results from ChEMBL document CHEMBL2417453, “Anti-inflammatory asterosaponins from the starfish Astropecten monacanthus” (J Nat Prod, 2013).

The IC50 is the concentration that inhibits the measured activity by half.

`C/C(=C\C(=O)CC(C)C)[C@H]1CC[C@H]2[C@@H]3C[C@H](O[C@@H]4O[C@H](C)[C@@H](O)[C@H](O[C@@H]5OC[C@@H](O[C@@H]6O[C@H](CO)[C@H](O)[C@H](O)[C@H]6O[C@@H]6O[C@H](C)[C@H](O)[C@H](O[C@@H]7O[C@@H](CO)[C@H](O)[C@H]7O)[C@H]6O)[C@H](O)[C@H]5O[C@@H]5O[C@H](C)[C@@H](O)[C@H](O)[C@H]5O)[C@H]4O)[C@H]4C[C@@H](OS(=O)(=O)O)CC[C@]4(C)C3=CC[C@]12C`: the figures for the IC50 in assay [1], in assay [2] and in assay [3] were greater than 50 µM, greater than 50 µM and 3.17 µM, respectively.

Consider `CC(C)C[C@H](O)C[C@](C)(O)[C@H]1CC[C@H]2[C@@H]3C[C@H](O[C@@H]4O[C@H](C)[C@@H](O)[C@H](O[C@@H]5OC[C@@H](O[C@@H]6O[C@H](CO)[C@H](O)[C@H](O)[C@H]6O[C@@H]6O[C@H](C)[C@H](O)[C@H](O[C@@H]7O[C@@H](CO)[C@H](O)[C@H]7O)[C@H]6O)[C@H](O)[C@H]5O[C@@H]5O[C@H](C)[C@@H](O)[C@H](O)[C@H]5O)[C@H]4O)[C@H]4C[C@@H](OS(=O)(=O)O)CC[C@]4(C)C3=CC[C@@]21C`, for which the IC50 in assay [1], in assay [2] and in assay [3] was greater than 50 µM in each case.

For the molecule `CC(=O)[C@H]1CC[C@H]2[C@@H]3C[C@H](O[C@@H]4O[C@H](C)[C@@H](O)[C@H](O[C@@H]5OC[C@@H](O[C@@H]6O[C@H](CO)[C@H](O)[C@H](O)[C@H]6O[C@@H]6O[C@H](C)[C@H](O)[C@H](O[C@@H]7O[C@@H](CO)[C@H](O)[C@H]7O)[C@H]6O)[C@H](O)[C@H]5O[C@@H]5O[C@H](C)[C@@H](O)[C@H](O)[C@H]5O)[C@H]4O)[C@H]4C[C@@H](OS(=O)(=O)O)CC[C@]4(C)C3=CC[C@]12C`, the IC50 was greater than 50 µM in assay [1], greater than 50 µM in assay [2] and 30.5 µM in assay [3].

With `CC(=O)CC(=O)C[C@@](C)(O)[C@H]1CC[C@H]2[C@@H]3C[C@H](O[C@@H]4O[C@H](CO)[C@@H](O)[C@H](O[C@@H]5O[C@H](C)[C@@H](O[C@@H]6O[C@H](C)[C@H](O)[C@H](O)[C@H]6O[C@@H]6O[C@H](C)[C@H](O)[C@H](O)[C@H]6O)[C@H](O)[C@H]5O[C@@H]5O[C@H](C)[C@@H](O)[C@H](O)[C@H]5O)[C@H]4O)[C@H]4C[C@@H](OS(=O)(=O)O)CC[C@]4(C)C3=CC[C@@]21C`, the IC50 in assay [1] was 0.6 µM; in assay [2], 1.21 µM; in assay [3] it was 3.51 µM.

In the case of `CC(C)=CC(=O)C[C@@H](C)[C@H]1CC[C@H]2[C@@H]3C[C@H](O[C@@H]4O[C@H](CO)[C@@H](O)[C@H](O[C@@H]5O[C@H](C)[C@@H](O[C@@H]6O[C@H](C)[C@H](O)[C@H](O)[C@H]6O[C@@H]6O[C@H](C)[C@H](O)[C@H](O)[C@H]6O)[C@H](O)[C@H]5O[C@@H]5O[C@H](C)[C@@H](O)[C@H](O)[C@H]5O)[C@H]4O)[C@H]4C[C@@H](OS(=O)(=O)O)CC[C@]4(C)C3=CC[C@]12C`, the IC50 in assay [1] was greater than 50 µM; in assay [2], greater than 50 µM; in assay [3] it was 4.37 µM.

Consider `CC(C)CC(=O)C[C@](C)(O)[C@H]1CC[C@H]2[C@@H]3C[C@H](O[C@@H]4O[C@H](C)[C@@H](O)[C@H](O[C@@H]5OC[C@@H](O[C@@H]6O[C@H](CO)[C@H](O)[C@H](O)[C@H]6O[C@@H]6O[C@H](C)[C@H](O)[C@H](O[C@@H]7O[C@@H](CO)[C@H](O)[C@H]7O)[C@H]6O)[C@H](O)[C@H]5O[C@@H]5O[C@H](C)[C@@H](O)[C@H](O)[C@H]5O)[C@H]4O)[C@H]4C[C@@H](OS(=O)(=O)O)CC[C@]4(C)C3=CC[C@@]21C` [PSILASTEROSIDE], for which the IC50 in assay [1], in assay [2] and in assay [3] was greater than 50 µM throughout.

As for `C[S+]([O-])c1ccc(-c2nc(-c3ccc(F)cc3)c(-c3ccncc3)[nH]2)cc1` (stereo unspecified) [SB-203580], the IC50 came to 5 µM in assay [1], 7.5 µM in assay [2] and 3.5 µM in assay [3].
